From ChEMBL document CHEMBL5620375, “Tetrahydrobenzo[h]quinoline derivatives as a novel chemotype for dual antileishmanial-antimalarial activity graced with antitubercular activity: Design, synthesis and biological evaluation” (Eur J Med Chem, 2023)
≈ marks a conversion by molar mass, not a printed value.

System: Mycobacterium tuberculosis
Test: Antitubercular activity against multidrug-resistant Mycobacterium tuberculosis ATCC 35822 assessed as inhibition of bacterial growth by microplate alamar blue assay
Format: functional

COc1ccc(-c2c3c([nH]c(=O)c2C#N)-c2ccccc2CC3)cc1O
MIC: 45.4 µM (≈ 15.6 µg/mL)

N#Cc1c(-c2ccc(Cl)cc2Cl)c2c([nH]c1=O)-c1ccccc1CC2
MIC: 85.4 µM (≈ 31.4 µg/mL)

COc1ccc(OC)c(-c2c3c([nH]c(=O)c2C#N)-c2ccccc2CC3)c1
MIC: 21.8 µM (≈ 7.82 µg/mL)

COc1ccccc1-c1c2c([nH]c(=O)c1C#N)-c1ccccc1CC2
MIC: 11.9 µM (≈ 3.9 µg/mL)

N#Cc1c(O)nc2c(c1-c1cccc([N+](=O)[O-])c1)CCc1ccccc1-2
MIC: 22.8 µM (≈ 7.82 µg/mL)
